As a reminder, the Kd is the constant that tells how readily two partners part at equilibrium. High values mean weaker binding, low ones tighter binding. By IC50 is commonly meant the concentration at which inhibition is half-maximal. High values mean weaker potency, low ones greater potency.

Ends that are not written are not given here.

The test system of test [1] is B-cell lymphoblastic leukemia. Put plainly: Doxycycline treatment of tet-BCL-2/MMTV-tTA/Eμ-myc leukemic mice. The following applies: doxycycline 500 μg/ml in drinking water, from 4-5 weeks of age. The class given is in vivo, mouse. The text has this: Using standard recombinant DNA technology, the tet-BCL-2 allele was targeted to the DNA methyltransferase 1 locus (FIG. 10). By crossing the new mouse line with the MMTV-tTA line (Jackson Labs) mice were generated which conditionally overexpress BCL-2 in epithelial cells and in B-lineage lymphocytes. Administration of doxycycline successfully suppresses BCL-2 overexpression in these animals. When these mice are crossed with mice expressing myc in the B-lymphocyte lineage (Eμ-myc mice, Jackson Labs) mice which uniformly have B-cell lymphoblastic leukemia were obtained.
To examine the effect of removing BCL-2 expression form the leukemia cells, the effects of doxycycline treatment in a cohort of 28 mice were examined. By genotype, each of the 28 mice contained the tet-BCL-2, the MMTV-tTA, and the Eμ-myc alleles. […] At 4-5 weeks of age, half were treated with doxycycline (500 μg/ml) in drinking water, and half were left untreated. The WBC was measured by hemocytometer using 2 μl blood from tail which was lysed with 0.3% saponin and stained with Hoechst 33258.

Test [2] concerns the target T1, GST-BCL-2 (Homo sapiens, UniProt P10415).
T1 construct: a GST-BCL-2 fusion protein lacking the C-terminal transmembrane domain was utilized; made in house; host or cells: E. coli BL21 DE3
Put plainly: Fluorescence polarization binding of fluoresceinated BH3 peptides to GST-BCL-2. The following applies: Kd (nM), BCL-2 Binding, 25 nM fluoresceinated peptide, GST-BCL-2 titration, 37° C. The text has this: (§1) To determine Kd for peptide binding to BCL-2, a GST-BCL-2 fusion protein lacking the C-terminal transmembrane domain was utilized. Peptides were synthesized with a fluorescein amino-terminus using an AHA linker. […] An increase in fluorescence polarization measured on a Perkin-Elmer LS 50B luminescence spectrophotometer was quantitated to calculate binding. A non-linear fit to a sigmoidal dose-response curve utilized the program Origin 6.0 to determine Kd. […] Data were fitted to a sigmoidal curve as above, and IC50 determined.
(§2) GST-BCL-2δC21 fusion proteins were induced in BL21 DE3 by 0.1 mM IPTG. The bacterial pellets were resuspended in lysis buffer (1 mg/ml lysozyme/1% Triton X-100/0.1 mg/ml PMSF/2 μg/ml aprotinin/2 μg/ml leupeptine/1 μg/ml pepstatin A in PBS) and sonicated. After centrifugation at 20,000×g for 20 min, the supernatant was applied to glutathione-agarose beads (Sigma). The beads were washed with PBS and treated with 50 mM glutathione/50 mM TrisHCl, pH8.0 to elute protein. Eluate was dialyzed against binding buffer and concentrated using Amicon centrifugal concentrating devices.
On the technique in general: In fluorescence polarisation assays a small probe gives low polarisation when free and higher when bound to something large.

Another test deals with MCL-1 (Homo sapiens, UniProt Q07820). Put plainly: MCL-1 binding.
Test [3] addresses T1, GST-BCL-2. Put plainly: BH3 peptide displacement from GST-BCL-2 by fluorescence polarization. The class given is binding.
Text: as §1, §2

T1 sequence (P10415 1-218 limits assumed): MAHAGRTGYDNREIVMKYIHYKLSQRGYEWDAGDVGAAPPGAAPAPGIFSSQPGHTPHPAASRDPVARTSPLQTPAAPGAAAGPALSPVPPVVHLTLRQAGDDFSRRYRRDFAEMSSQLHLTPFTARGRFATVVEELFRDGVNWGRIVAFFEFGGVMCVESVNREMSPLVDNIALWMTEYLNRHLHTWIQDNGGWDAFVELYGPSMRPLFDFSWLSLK
MCL-1, sequence (Q07820 whole entry, species assumed): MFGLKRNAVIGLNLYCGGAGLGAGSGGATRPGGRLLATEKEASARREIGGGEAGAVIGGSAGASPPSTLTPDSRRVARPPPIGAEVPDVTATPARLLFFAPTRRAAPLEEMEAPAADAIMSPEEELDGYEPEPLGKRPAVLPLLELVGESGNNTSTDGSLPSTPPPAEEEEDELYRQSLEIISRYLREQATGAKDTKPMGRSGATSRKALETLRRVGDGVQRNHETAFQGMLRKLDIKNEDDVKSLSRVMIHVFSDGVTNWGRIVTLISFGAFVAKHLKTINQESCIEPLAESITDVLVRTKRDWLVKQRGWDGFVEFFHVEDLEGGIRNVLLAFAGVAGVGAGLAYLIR

For the molecule `C[C@H]1c2cccc(O)c2C(=O)C2=C(O)[C@]3(O)C(=O)C(C(N)=O)=C(O)[C@@H](N(C)C)[C@@H]3[C@@H](O)[C@@H]21` [doxycycline], the “decrease in WBC” value in test [1] was 1-2 log.

As to EDIIRNIARHAAQVGASMDR [BIDBH3 mut], the Kd at GST-BCL-2 [2] is greater than 1000 nM; at MCL-1, greater than 2.6 µM. The molecule further came in with an IC50 on GST-BCL-2 [3] greater than 30 µM.

Values taken from patent publication US9902759B2, “BH3 peptides and methods of use thereof” (Dana-Farber Cancer Institute, Inc., priority 2002, dated 2018).
